Source: patent US20230406837A1, “SULFAMATE MODULATORS OF PIN1 ACTIVITY AND USES THEREOF” (Yeda Research and Development Co., Ltd., priority 2022, published 2023)
Entries after “also recorded” stand apart in the source; their conditions may differ.

Experiments:
[1] = DTNB thiol reactivity assay; format: physicochemical; settings: 200 μM compound, pH 7.4, 37° C.
Description: The compound 5,5′-dithio-bis(2-nitrobenzoic acid) (DTNB; 50 μM) was incubated with 200 μM tris(2-carboxyethyl)phosphine (TCEP) in 20 mM sodium phosphate buffer pH 7.4 and 150 mM NaCl for 5 min at room temperature, to obtain TNB^−2. […] UV absorbance was acquired every 15 min for 7 h. The assay was performed in a 384-well plate using a Tecan Spark 10M plate reader. […] Compounds were measured in triplicate. The data were fitted to a second-order reaction equation such that the rate constant (K) is the slope of ln([A][B0]/[B][A0]), where [A0] and [B0] are the initial concentrations of the compound (200 μM) and TNB^−2 (100 μM), respectively, and [A] and [B] are the remaining concentrations as a function of time as deduced from spectrometric measurements. Linear regression using Prism was performed to fit the rate against the first 7 h of measurements.

[2] = molecular target: T1, Pin1 (Homo sapiens, UniProt Q13526); assay: In-vitro Pin1 covalent labeling by intact protein LC/MS; format: binding; parameters: The catalytic domain of Pin1 (2 μM) in 20 mM Tris, 75 mM NaCl, pH 7.5 was incubated with 2 μM Sulfamate; made in house; settings: 2 μM compound, 2 μM Pin1, pH 7.5, 1 h, 25° C.
Description: Pin1 was expressed and purified as previously reported^38. The catalytic domain of Pin1 (2 μM) in 20 mM Tris, 75 mM NaCl, pH 7.5 was incubated with 2 μM Sulfamate (4a-4g) for 1 h at 25° C.
The reaction mixtures, at room temperature for various times, were injected into the LC/MS. For data analysis, the raw spectra were deconvoluted using a 20000:40000 Da (For Pin1, 10000:30000) window and 1 Da resolution. The labeling percentage for a compound was determined as the labeling of a specific compound (alone or together with other compounds) divided by the overall detected protein species.
Initially, these compounds (4a-4g; 2 μM) were incubated with Pin1 (2 μM; […] Tris buffer; pH 7.5, 1 h; 25° C.) to check covalent labeling by intact protein MS (FIG. 11B,C; FIG. 10).
Target sequence in this assay (Q13526 52-163 limits assumed): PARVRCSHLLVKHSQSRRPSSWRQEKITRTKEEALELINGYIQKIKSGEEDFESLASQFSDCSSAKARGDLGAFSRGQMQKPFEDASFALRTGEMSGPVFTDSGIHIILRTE

[3] = Buffer stability assay (hydrolysis by LC/MS); format: physicochemical; settings: for hydrolysis in PBS buffer (FIG. 13): 100 μM, pH 8, 37° C. for four days; for hydrolysis in PBS buffer: pH 8, 37° C., after 2 days
Description: FIG. 8: Buffer stability of model compounds. […] The percentage of hydrolysis was quantified using LC/MS at a wavelength of 220 nm.
FIG. 13: Sulfonate and sulfamate compounds. […] For compounds Sulfopin, 4a, and 4b, spectra at 220 nm were taken to show the peaks. […] “#” refers to hydrolysis product “*” refers to unidentified peak.
Reaction mixtures were kept at 37° C. with shaking.

[4] = molecular target: T2, Pin1 Cys113 (Homo sapiens, UniProt Q13526); assay: Competitive isoTOP-ABPP in PATU-8988T cells; format: cell-based; settings: for peptides labeled with an H/L ratio >2: out of about 3,000 cysteines identified
T2 construct: endogenous in cells
T2 sequence (Q13526 whole entry): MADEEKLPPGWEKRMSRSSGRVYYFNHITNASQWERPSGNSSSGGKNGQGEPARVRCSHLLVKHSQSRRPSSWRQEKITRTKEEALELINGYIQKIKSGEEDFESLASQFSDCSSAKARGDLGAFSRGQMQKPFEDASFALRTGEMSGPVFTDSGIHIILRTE
Description: FIGS. 11A-11E: Sulfamate acetamides as potent and selective Pin1 inhibitors. FIG. 11A. Chemical structures of the sulfonate and sulfamate compounds (4a-4g). FIG. 11B. Deconvoluted LC/MS spectrum for Pin1 (2 μM) incubated with 4 g at pH 7.5, 25° C., 1 h. The adduct mass corresponds to a labeling event in which the sulfamate group was released. FIG. 11C. Percent of Pin1 labeling (2 μM) with the probes (4a-4g; 2 μM; y-axis) compared to their intrinsic thiol reactivity as assessed by their rate of reaction in a DTNB assay (x-axis). FIG. 11D. Cellular engagement of the Sulfamates. OCI-AML2 cells were treated with DMSO, Sulfopin or sulfamate compounds (4c, 4d, 4g) at 0.5 and 2.5 μM concentration for 4 hours. Lysates were then incubated with a Sulfopin desthiobiotin (DTB) probe (1 μM), pulled down using streptavidin beads before running a western blot against Pin1. FIG. 11E. IsoDTB ABPP experiment with sulfopin and sulfamate compound 4d. […] The labeled peptides were pull-down with streptavidin beads and analysed by LC/MS/MS (similar protocol to BTK, see FIG. 521; n=4). Proteins in the box have a heavy to light (H/L) ratio ≥2. Only peptides detected in three out of four repetitions are presented.

[5] = Metabolic stability in liver microsomes; format: in vitro ADME; settings: LC/MS/MS
Description: FIG. 14: Sulfamates compounds show high metabolic stability. Compounds (Sulfopin, 4d, 4e, and 4g) were incubated in liver microsomes and injected to LC/MS/MS at indicated time points. The peak intensities of the compounds were measured in UV spectra.

[6] = molecular target: T1, Pin1; assay: Kinetics of Pin1 binding (KI and Kinact) by LC-MS; parameters: made in house; kinact: unit not given here; settings: for Ki: read-out: K1 value (KI)
Text: The reaction was monitored by LC-MS. FIGS. 17B and 17D. The rate constants as extrapolated from FIGS. 17A and 17C, respectively, as a function of the concentration of sulfopin and 4d.
Target sequence in this assay (Q13526 whole entry, the tested form may be a part): as the sequence (Q13526 whole entry) above

[7] = test system: Mino cells; assay: In situ proteomic labeling with alkyne probes, in-gel fluorescence; format: cell-based; settings: 2 h
Text: FIGS. 5A-5C: α-sulfamate acetamide 1a-aj, and 2a-2c can show up to two orders of magnitude less reactivity towards GSH than chloroacetamide. FIG. 5A: Chemical structures of model α-sulfamate/sulfonate/sulfone acetamides. FIG. 5B: Half-life (t1/2) of the model compounds (1a-1j) assessed by GSH consumption assay via LC/MS (FIG. 4B). FIG. 5C: In situ proteomic labeling with alkyne probes (2a-2c). […] A band that is selectively detected only by compound 2a is indicated by *.
Sulfamate acetamides show attenuated and tunable proteomic reactivity. To assess proteomic selectivity in cells, two sulfamate acetamides (2a and 2b) and a chloroacetamide (2c) with an alkyne functionality have been synthesized (FIG. 3 and FIG. 4A). Mino cells were treated for two hours with either DMSO or 2a-c. Then, the cells were lysed, labeled the alkynes via copper-catalyzed “click chemistry” (CuAAC) with TAMRA-azide, and imaged the adducts via in-gel fluorescence (FIG. 4C). Similar to their reactivity pattern in the GSH reactivity assay, these compounds labeled various amounts of proteins under cellular conditions.

[8] = GSH consumption (reactivity) assay by LC/MS; settings: for reactivity to GSH relative to chloroacetamide (1a): 5 mM GSH, 200 μM electrophile, pH 8, 14° C.; for covalent bond formation with GSH: assay conditions or temperatures up to 37° C. for 24 h
[9] = Pin1 0.5 μM, 100 mM Tris buffer pH 7.4, 14° C.

CC(C)(C)CN(C(=O)COS(=O)(=O)Nc1ccc(Br)cc1)C1CCS(=O)(=O)C1 (centres unmarked) [Compound 4e, 2-((1,1-dioxidotetrahydrothiophen-3-yl)(neopentyl)amino)-2-oxoethyl (4-bromophenyl)sulfamate]
thiol reactivity relative to Sulfopin [1]: lower thiol reactivity than Sulfopin

CC(C)(C)CN(C(=O)COS(C)(=O)=O)C1CCS(=O)(=O)C1 (centres unmarked) [Compound 4a, 2-((1,1-dioxidotetrahydrothiophen-3-yl)(neopentyl)amino)-2-oxoethyl Methanesulfonate]
Pin1 labeling by intact protein MS [2]: 18% | hydrolysis in PBS buffer (FIG. 13) [3]: 15% | hydrolysis in PBS buffer [3]: 15%

CC(C)(C)CN(C(=O)CCl)C1CCS(=O)(=O)C1 (centres unmarked) [Sulfopin, reference compound]
competition ratio (H/L) of Pin1 Cys113 [4]: highest competition ratio; also recorded: more complete target engagement | peptides labeled with an H/L ratio >2 [4]: six | metabolic stability [5]: good metabolic stability | Pin1 labeling by intact protein MS [2]: 59% | Ki [6, 9]: 217 µM | hydrolysis in PBS buffer (FIG. 13) [3]: 30% | hydrolysis in PBS buffer [3]: 30%

C#Cc1ccc(NC(=O)CCl)cc1 [Compound 2c, 2-chloro-N-(4-ethynylphenyl)acetamide]
proteomic reactivity (proteins labeled) [7]: enriching more proteins

O=C(COS(=O)(=O)NCc1ccccc1)NCc1ccccc1 [Compound 1e, 2-(benzylamino)-2-oxoethyl Benzylsulfamate]
reactivity to GSH relative to chloroacetamide (1a) [8]: an order of magnitude less reactivity

CNS(=O)(=O)OCC(=O)N(CC(C)(C)C)C1CCS(=O)(=O)C1 (centres unmarked) [Compound 4b, 2-((1,1-dioxidotetrahydrothiophen-3-yl)(neopentyl)amino)-2-oxoethyl Methylsulfamate]
Pin1 labeling by intact protein MS [2]: 16%

CS(=O)(=O)CC(=O)NCc1ccccc1 [Compound 1i, N-benzyl-2-(methylsulfonyl)acetamide]
covalent bond formation with GSH [8]: did not form a covalent bond with GSH

C#Cc1ccc(NC(=O)COS(=O)(=O)NCc2ccccc2)cc1 [Compound 2a, 2-((4-ethynylphenyl)amino)-2-oxoethyl Benzylsulfamate]
proteomic reactivity (proteins labeled) [7]: enriching more proteins; also recorded: labeled a distinct protein that was not labeled by the chloroacetamide

CNS(=O)(=O)OCC(=O)NCc1ccccc1 [Compound 1d, 2-(benzylamino)-2-oxoethyl Methylsulfamate]
reactivity to GSH relative to chloroacetamide (1a) [8]: an order of magnitude less reactivity

CC(C)(C)CN(C(=O)COS(=O)(=O)Nc1ccccc1)C1CCS(=O)(=O)C1 (centres unmarked) [Compound 4d, 2-((1,1-dioxidotetrahydrothiophen-3-yl)(neopentyl)amino)-2-oxoethyl Phenylsulfamate]
competition ratio (H/L) of Pin1 Cys113 [4]: highest competition ratio | peptides labeled with an H/L ratio >2 [4]: six | thiol reactivity relative to Sulfopin [1]: lower thiol reactivity than Sulfopin | binding affinity to Pin1 relative to sulfopin ([6]; KI of 4d versus sulfopin): five-times better K1 value; also recorded: five-fold higher binding affinity | kinact [6, 9]: 2.48 | Ki [6, 9]: 43.6 µM

CC(C)(C)CN(C(=O)COS(=O)(=O)NCc1ccccc1)C1CCS(=O)(=O)C1 (centres unmarked) [Compound 4c, 2-((1,1-dioxidotetrahydrothiophen-3-yl)(neopentyl)amino)-2-oxoethyl Benzylsulfamate]
thiol reactivity relative to Sulfopin [1]: lower thiol reactivity than Sulfopin | Pin1 labeling by intact protein MS [2]: 56%

O=C(COS(=O)(=O)Nc1ccccc1)N(CC1CCCCC1)C1CCS(=O)(=O)C1 (centres unmarked) [Compound 4g, 2-((cyclohexylmethyl)(1,1-dioxidotetrahydrothiophen-3-yl)amino)-2-oxoethyl Phenylsulfamate]
thiol reactivity relative to Sulfopin [1]: slightly higher reactivity | Pin1 labeling by intact protein MS [2]: > 95%

C#Cc1ccc(NC(=O)COS(=O)(=O)Nc2ccccc2)cc1 [Compound 2b, 2-((4-ethynylphenyl)amino)-2-oxoethyl Phenylsulfamate]
proteomic reactivity (proteins labeled) [7]: low reactivity

O=C(CS(=O)(=O)c1ccccc1)NCc1ccccc1 [Compound 1j, N-benzyl-2-(phenylsulfonyl)acetamide]
covalent bond formation with GSH [8]: did not form a covalent bond with GSH
